According to US7109244B2, “Compositions and methods comprising long-chain, straight-chain 2-amino-3-hydroxyalkanes” (priority 1997, dated 2006):
pIC50: −log10 of the molar value.

Experiments:
CV-1 = assay: expanded in vitro screen, CV-1 normal cell line; type: cell-based, monkey; conditions: Primates, CV-1, Kidney fibroblasts
Protocol: (§1) An expanded in vitro screen was performed of spisulosine 285 against a series of different cell lines.

HT-29 = assay: expanded in vitro screen, HT-29; type: cell-based; conditions: Homo sapiens; HT-29, Colon, solid
Protocol: as §1

[1] = tested on: human renal cancer (MRI-H-121); assay: xenograft model of human renal cancer; type: in vivo; conditions: for % T/C / Comments: intraperitoneal
Protocol: Spisulosine 285 was tested in in vivo studies against xenograft models of human prostate cancer (PC-3) and human renal cancer (MRI-H-121). These models use subcutaneously implanted solid human tumors that grow and increase in volume over time. The mean volume of tumor growth in control animals provides the basis for comparison. […] A level of activity that is less than 40% T/C is considered statistically significant. The doses of spisulosine used were given at the maximum tolerated, non lethal dose (MTD), ½ MTD and ¼ MTD. Delivery of the drug was by the intraperitoneal route.

PANC-1 = assay: expanded in vitro screen, PANC-1; type: cell-based; conditions: Homo sapiens; PANC-1, Pancreas, solid
Protocol: as §1

FADU = assay: expanded in vitro screen, FADU; type: cell-based; conditions: Homo sapiens, Pharnynx, solid
Protocol: as §1

MX-1 = assay: expanded in vitro screen, MX-1; type: cell-based; conditions: Homo sapiens, MX1; MX-1, Mammary, solid
Protocol: as §1

[2] = tested on: L1210 murine lymphocytic leukemia cells; assay: L1210 morphological change (pointed cells); type: cell-based; conditions: for % Pointed cells: percent of the living cells; for % Pointed Cells 1st: 27 h
Protocol: Referring to FIG. 1, in the L1210 assay some of the cells changed from being spherical (FIG. 1A) to ovoid with long points approximately […] apart (FIG. 1B). Several other forms have also been observed in assays of these extracts, including cells with points not […] apart (FIG. 1C), cells with more than two points (FIG. 1D), cells with a bulge (FIG. 1E) and cells with a bulge replacing one of the points (FIG. 1F). However, the form with two sharp, opposing points was by far the predominant and characteristic one observed. This type of morphological change had not previously been observed during the screening of over 1000 marine extracts.
As discussed above, the spisulosines caused a distinct morphological change in L1210 leukemia cells, in addition to cytotoxicity. This bioactivity, which was recorded as the percentage of living cells in which altered morphology was observed, could be observed sometimes as early as 13 h after the start of the assay and reached a maximum at 50–60 h, after which it decreased. […] The morphological effect was usually measured 30–35 h after the start of the assay and again about 24 h later, while the cytotoxicity was determined when the number of cells in the controls reached approximately 8000, usually in 3 days after the assay was begun. It should be noted that the pointed cells were live cells and that they were counted as such for the cytotoxicity reading. Also, assays in which 100% cytotoxicity was recorded may still have contained live cells (<0.5%) which may or may not have been pointed. All morphologically-changed cells were counted in the pointed cell percentage.
Morphologically-changed cells (FIGS. 1A–1F) were counted as living cells when determining the percent inhibition of growth. Morphological changes were assessed throughout the assay period. The percentage of pointed cells was determined by counting the number of altered cells in approximately 60 living cells. This percentage varied with the length of time the assay had been running. It generally reached its maximum about 50 hours after the start of the assay, but pointed cells could be observed as early as 13 hours after the start of the assay and could usually still be seen when the percent growth inhibition was measured. The percentages of pointed cells were often counted both after about 35 and after 55 hours. The time that this measurement was made is indicated with the data.

ARH77 = assay: expanded in vitro screen, ARH77; type: cell-based; conditions: Homo sapiens, ARH-77; ARH77, Leukemia
Protocol: as §1

P-388 = assay: in vitro tumor cell line activity, P-388; type: cell-based
CCRF-SB = assay: expanded in vitro screen, CCRF-SB; type: cell-based; conditions: Homo sapiens, Leukemia
Protocol: as §1

Rho protein = Rho protein electrophoresis / Western blot and subcellular fractionation (Example C); type: cell-based; conditions: 0.5 mM, 20 hour
Protocol: The small GTP binding protein Rho is involved in the formation of actin-myosin “stress fibers” (Hall, A., Science, 279, 1998, p 509–514). Therefore, the electrophoretic mobility and cellular distribution of Rho was analyzed in cells treated with spisulosine 285.
FIG. 5 is an electrophoretogram of Example C. In panel A, equivalent amounts of protein from a cell extract from untreated (a) or from 0.5 mM spisulosine 285 treated (20 hour) cells (b) were fractionated by gel electrophoresis and blotted onto nitrocellulose paper to analyze the amount of the Rho protein.
In panel B the experiment was carried out as above, except that the homogenate was fractionated into a particulate (membrane, “M”) fraction and soluble (“S”) fraction.
Subcellular fractionation was carried out by placing cells in a hypotonic buffer (0.25 M sucrose, 20 mM HEPES pH 7.4, 2 mM EDTA, 1 mM PMSF, […] aprotinin, leupeptine and pestatine), and lysing them with a Dounce. The homogenate was first centrifuged at 750 g for 5 minutes to remove nuclei and unbroken cells, and the supernatant was further centrifuged at 30,000 g for 1 hour (4° C.) to isolate a pelleted particulate fraction (putative membrane fraction) and a supernatant. The different fractions were characterised by electrophoresis and Western Blotting using an antibody against the Rho protein.

`CCCCCCCCCCCCCCC[C@@H](O)[C@H](C)N` [Spisulosine 285, (2S,3R)-2-Amino-3-octadecanol] was tested, and the pIC50 (CV-1) was 10.56, the pIC50 (HT-29) was 11.59 and the “effect on tumour growth (in words)” value ([1]; effects continuing up to a few weeks after the last dose) was “reduces the growth of the human renal cancer”. For the same molecule, the “% T/C” value ([1]; total dose 2.499 mg/kg, day 15) was 43%, the “% T/C” value ([1]; total dose 5.010 mg/kg, day 11) was 35% and the Comments ([1]; total dose 5.010 mg/kg, day 11) was “inhibition (partial”. The “% T/C” value ([1]; total dose 9.990 mg/kg, day 11) was 28%, the Comments ([1]; total dose 9.990 mg/kg, day 11) was “inhibition (partial” and the pIC50 (PANC-1) was 11.77. The pIC50 (FADU) was 11.30, the pIC50 (MX-1) was 10.41 and the “L1210 morphological alteration / pointed cell activity (in words)” value [2] was “pointed cell activity”. For the same molecule, the “% Pointed cells” value ([2]; 0.01 μg/ml) was 1%, the “% Pointed cells” value ([2]; 0.05 μg/ml) was 71% and the “% Pointed Cells 1st” value ([2]; 0.1 μg/ml) was 33%. The “% Pointed cells” value ([2]; 0.1 μg/ml) was 62%, the “% Pointed Cells 1st” value ([2]; 0.5 μg/ml) was 56% and the “% Pointed cells” value ([2]; 0.5 μg/ml) was 97%. The “% Pointed Cells 1st” value ([2]; 1 μg/ml) was 64%, the “% Pointed Cells 1st” value ([2]; 5 μg/ml) was “ad” and the pIC50 (ARH77) was 10.87. For the same molecule, the “active against tumor cell line in vitro (concentration)” value (P-388) was 0.01 mg/mL, the pIC50 (CCRF-SB) was 8.98 and the “amount or mobility of Rho” value (Rho protein) was “No significant change”. The “proportion of Rho associated with the particulate fraction” value (Rho protein) was “decrease”.
